In series [1] the test system is Mycobacterium tuberculosis. The series is described as follows: Antimycobacterial activity against Mycobacterium tuberculosis H37Rv assessed as bacterial growth inhibition incubated for 7 days by MABA assay. In kind it is functional. The settings on record: 168 h, time 7 day.
Series [2] can be described thus: Cytotoxicity against African green monkey vero cells assessed as reduction in cell viability. The following applies: chlorocebus sabaeus. In kind it is toxicity, cell-based.
Series [3] can be described thus: Volume of distribution in CD-1 mouse at 0.6 mg/kg, iv. The series is classed as ADME, organism-based. The following applies: in vivo.
A short description of series [4]: Half life in CD-1 mouse at 0.6 mg/kg, iv. The series is classed as ADME, organism-based. The settings on record: in vivo.
The nature of series [5]: Cmax in CD-1 mouse at 5 mg/kg, po. In kind it is ADME, organism-based. On the set-up: dose 5 mg/kg, route po. The settings on record: in vivo.
The nature of series [6]: AUC (0-last) in CD-1 mouse at 5 mg/kg, po. The following applies: mouse, in vivo. In kind it is ADME, organism-based. Also on record: dose 5 mg/kg, route po.
A short description of series [7]: Oral bioavailability in CD-1 mouse at 5 mg/kg. The series is classed as ADME, organism-based. The following applies: mouse, in vivo, po, 5 mg/kg.
Series [8] is described as follows: Metabolic stability in human liver microsomes assessed as half life. The series is classed as ADME, Microsome.
Series [9] is described as follows: Metabolic stability in rat liver microsomes assessed as half life. The series is classed as ADME, Microsome.
A short description of series [10]: Metabolic stability in mouse liver microsomes assessed as half life. The series is classed as ADME, Microsome.
The test system of series [11] is Mycobacterium tuberculosis. Briefly: Antimycobacterial activity against Mycobacterium tuberculosis H37Rv assessed as bacterial growth inhibition incubated for 10 days under hypoxic condition followed by 28 hrs incubation under normoxic condition by Low-Oxygen-Recovery Assay. In kind it is functional. The settings on record: 264 h, time 11 day.
Series [12] deals with Mycobacterium tuberculosis. Briefly: Antimycobacterial activity against clinical isolate drug susceptible Mycobacterium tuberculosis H37Rv assessed as bacterial growth inhibition. The series is classed as functional.
Series [13] in a line: Apparent permeability across apical to basolateral side in dog MDCK cells. The series is classed as ADME, cell-based, Canis lupus familiaris.
Series [14] can be described thus: Plasma protein binding in mouse assessed as bound fraction. The following applies: read-out: PPB (converted). In kind it is ADME, cell-free.
The nature of series [15]: Plasma protein binding in rat assessed as bound fraction. In kind it is ADME, cell-free. The settings on record: read-out: PPB (converted).
The nature of series [16]: Plasma protein binding in dog assessed as bound fraction. The series is classed as ADME, cell-free, Canis lupus familiaris. The settings on record: read-out: PPB (converted).
The nature of series [17]: Plasma protein binding in human assessed as bound fraction. In kind it is ADME, cell-free. The following applies: read-out: PPB (converted).
Another series concerns the target T1, Cytochrome P450 1A2 (Homo sapiens, UniProt P05177).
T1 sequence (P05177 whole entry): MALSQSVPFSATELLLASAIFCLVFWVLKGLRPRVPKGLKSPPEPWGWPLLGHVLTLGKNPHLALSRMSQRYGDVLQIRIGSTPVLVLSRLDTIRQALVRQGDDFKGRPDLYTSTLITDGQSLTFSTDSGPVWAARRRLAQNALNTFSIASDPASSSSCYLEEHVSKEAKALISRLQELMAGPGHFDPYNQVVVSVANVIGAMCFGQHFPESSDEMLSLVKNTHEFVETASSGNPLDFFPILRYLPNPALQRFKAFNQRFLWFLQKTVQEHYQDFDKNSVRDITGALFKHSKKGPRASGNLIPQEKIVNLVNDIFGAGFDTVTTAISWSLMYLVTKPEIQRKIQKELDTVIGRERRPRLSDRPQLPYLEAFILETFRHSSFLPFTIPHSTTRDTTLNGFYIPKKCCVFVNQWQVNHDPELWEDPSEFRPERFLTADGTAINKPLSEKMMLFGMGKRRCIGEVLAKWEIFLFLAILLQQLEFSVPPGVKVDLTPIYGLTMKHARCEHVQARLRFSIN
The series is described as follows: Inhibition of CYP1A2 (unknown origin). In kind it is ADME.

In a further series the target is T2, Cytochrome P450 2B6 (Homo sapiens, UniProt P20813).
T2 sequence (P20813 whole entry): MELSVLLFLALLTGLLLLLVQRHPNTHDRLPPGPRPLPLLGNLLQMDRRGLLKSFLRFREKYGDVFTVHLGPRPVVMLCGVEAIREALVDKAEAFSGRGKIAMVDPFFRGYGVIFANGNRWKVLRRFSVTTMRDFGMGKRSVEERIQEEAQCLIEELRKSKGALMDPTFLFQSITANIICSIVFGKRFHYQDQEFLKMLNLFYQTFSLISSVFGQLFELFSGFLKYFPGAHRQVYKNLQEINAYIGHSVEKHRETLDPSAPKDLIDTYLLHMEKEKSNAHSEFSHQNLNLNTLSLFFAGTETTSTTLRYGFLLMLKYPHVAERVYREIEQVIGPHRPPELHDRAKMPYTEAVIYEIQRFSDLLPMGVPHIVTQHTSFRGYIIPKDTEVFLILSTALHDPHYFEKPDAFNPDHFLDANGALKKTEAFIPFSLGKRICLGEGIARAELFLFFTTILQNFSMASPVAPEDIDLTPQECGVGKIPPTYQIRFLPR
Briefly: Inhibition of CYP2B6 (unknown origin). In kind it is ADME.

The target of the next series is T3, Cytochrome P450 2C8 (Homo sapiens, UniProt P10632).
T3 sequence (P10632 whole entry): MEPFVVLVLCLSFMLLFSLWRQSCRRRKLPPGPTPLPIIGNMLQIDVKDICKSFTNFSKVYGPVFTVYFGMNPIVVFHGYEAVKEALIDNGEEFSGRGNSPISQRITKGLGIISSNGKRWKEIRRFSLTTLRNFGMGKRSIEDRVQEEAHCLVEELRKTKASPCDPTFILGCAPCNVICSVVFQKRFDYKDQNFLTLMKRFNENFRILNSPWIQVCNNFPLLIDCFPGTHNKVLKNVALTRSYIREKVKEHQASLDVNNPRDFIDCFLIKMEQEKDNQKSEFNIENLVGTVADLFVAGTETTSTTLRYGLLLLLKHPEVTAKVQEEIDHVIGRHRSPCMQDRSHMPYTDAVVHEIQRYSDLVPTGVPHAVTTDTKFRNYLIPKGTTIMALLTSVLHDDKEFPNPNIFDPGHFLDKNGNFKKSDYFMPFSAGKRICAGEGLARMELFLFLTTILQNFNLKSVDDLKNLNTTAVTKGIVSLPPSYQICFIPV
The series is described as follows: Inhibition of CYP2C8 (unknown origin). In kind it is ADME.

In another series the target is Cytochrome P450 2C9 (Homo sapiens, UniProt P11712). The series is described as follows: Inhibition of CYP2C9 (unknown origin). In kind it is ADME.
Cytochrome P450 2C9, sequence (P11712 whole entry): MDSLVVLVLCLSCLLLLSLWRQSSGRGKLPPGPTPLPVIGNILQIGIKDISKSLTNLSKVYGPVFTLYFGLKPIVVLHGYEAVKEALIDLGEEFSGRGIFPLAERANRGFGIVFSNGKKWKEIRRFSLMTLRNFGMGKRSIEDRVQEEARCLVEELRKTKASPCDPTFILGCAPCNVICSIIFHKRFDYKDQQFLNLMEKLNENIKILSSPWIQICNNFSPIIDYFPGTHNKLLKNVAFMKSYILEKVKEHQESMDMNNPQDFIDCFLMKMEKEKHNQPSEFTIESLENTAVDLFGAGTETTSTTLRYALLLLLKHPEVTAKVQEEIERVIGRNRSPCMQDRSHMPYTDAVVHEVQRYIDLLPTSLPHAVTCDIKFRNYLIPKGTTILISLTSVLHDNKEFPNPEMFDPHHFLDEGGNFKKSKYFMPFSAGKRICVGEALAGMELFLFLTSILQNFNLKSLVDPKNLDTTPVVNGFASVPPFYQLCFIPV
The target of the next series is Cytochrome P450 2C19 (Homo sapiens, UniProt P33261). Briefly: Inhibition of CYP2C19 (unknown origin). The series is classed as ADME.
Cytochrome P450 2C19, sequence (P33261 whole entry): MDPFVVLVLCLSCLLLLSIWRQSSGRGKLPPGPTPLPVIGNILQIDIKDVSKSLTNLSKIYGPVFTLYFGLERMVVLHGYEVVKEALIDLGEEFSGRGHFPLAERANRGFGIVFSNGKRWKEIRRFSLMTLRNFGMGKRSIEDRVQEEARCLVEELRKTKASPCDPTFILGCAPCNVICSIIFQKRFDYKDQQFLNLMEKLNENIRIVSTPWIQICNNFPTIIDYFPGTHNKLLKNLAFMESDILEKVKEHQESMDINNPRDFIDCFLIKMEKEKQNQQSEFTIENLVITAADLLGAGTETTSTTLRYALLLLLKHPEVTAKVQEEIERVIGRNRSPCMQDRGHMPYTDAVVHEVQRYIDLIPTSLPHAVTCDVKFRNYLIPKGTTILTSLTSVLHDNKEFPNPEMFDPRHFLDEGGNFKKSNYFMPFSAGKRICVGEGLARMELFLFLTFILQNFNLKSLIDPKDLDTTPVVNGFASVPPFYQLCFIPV
Another series addresses Cytochrome P450 2D6 (Homo sapiens, UniProt P10635). The series is described as follows: Inhibition of CYP2D6 (unknown origin). In kind it is ADME.
Another series has as its target Cytochrome P450 3A4 (Homo sapiens, UniProt P08684). The series is described as follows: Inhibition of CYP3A4 (unknown origin). In kind it is ADME.
The target in series [18] is Voltage-gated inwardly rectifying potassium channel KCNH2 (Homo sapiens, UniProt Q12809). Briefly: Inhibition of human ERG. The series is classed as toxicity.
Voltage-gated inwardly rectifying potassium channel KCNH2, sequence (Q12809 whole entry): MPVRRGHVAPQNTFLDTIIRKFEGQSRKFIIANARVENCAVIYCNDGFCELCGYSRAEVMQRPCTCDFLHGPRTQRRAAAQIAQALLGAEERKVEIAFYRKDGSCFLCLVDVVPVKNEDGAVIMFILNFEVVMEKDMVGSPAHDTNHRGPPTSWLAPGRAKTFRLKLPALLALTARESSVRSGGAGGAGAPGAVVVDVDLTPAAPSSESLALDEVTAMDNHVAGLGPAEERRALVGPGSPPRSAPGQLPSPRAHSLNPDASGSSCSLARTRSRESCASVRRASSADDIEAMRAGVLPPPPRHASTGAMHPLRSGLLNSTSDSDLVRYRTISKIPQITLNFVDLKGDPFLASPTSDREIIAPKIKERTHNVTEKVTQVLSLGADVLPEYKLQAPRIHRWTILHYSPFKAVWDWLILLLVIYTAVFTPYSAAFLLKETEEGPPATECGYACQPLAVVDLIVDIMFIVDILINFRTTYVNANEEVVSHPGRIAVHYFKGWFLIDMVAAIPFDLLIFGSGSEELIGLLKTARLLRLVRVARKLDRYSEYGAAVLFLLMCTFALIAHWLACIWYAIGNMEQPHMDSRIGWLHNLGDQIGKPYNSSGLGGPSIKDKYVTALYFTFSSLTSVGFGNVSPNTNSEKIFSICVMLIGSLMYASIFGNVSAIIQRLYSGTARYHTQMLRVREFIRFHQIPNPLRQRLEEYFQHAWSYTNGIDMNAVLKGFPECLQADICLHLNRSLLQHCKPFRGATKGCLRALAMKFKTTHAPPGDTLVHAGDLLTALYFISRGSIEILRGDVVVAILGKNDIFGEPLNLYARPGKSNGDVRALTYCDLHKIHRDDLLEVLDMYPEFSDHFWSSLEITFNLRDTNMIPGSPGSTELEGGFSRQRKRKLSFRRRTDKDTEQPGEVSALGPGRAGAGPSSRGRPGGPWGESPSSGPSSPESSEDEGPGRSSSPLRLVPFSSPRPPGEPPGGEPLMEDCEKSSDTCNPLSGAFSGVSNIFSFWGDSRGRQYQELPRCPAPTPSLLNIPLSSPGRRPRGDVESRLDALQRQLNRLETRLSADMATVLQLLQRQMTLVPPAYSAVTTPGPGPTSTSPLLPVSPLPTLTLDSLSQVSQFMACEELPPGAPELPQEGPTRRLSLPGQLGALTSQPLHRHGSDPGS
The subject of series [19] is Mycobacterium tuberculosis. The series is described as follows: Antimycobacterial activity against Mycobacterium tuberculosis Erdman assessed as bacterial growth inhibition. In kind it is functional.
Series [20] has as its system Mycobacterium tuberculosis. The series is described as follows: In vivo antimycobacterial activity against Mycobacterium tuberculosis Erdman infected mouse acute tuberculosis infection model assessed as reduction lung bacterial loads by measuring CFU at 10 to 100 mg/kg for 3 weeks at 5 days/week. The settings on record: dose 10-100 mg/kg, DDE = dose-dependent effect. In kind it is functional, organism-based.

The test system of series [21] is Mycobacterium tuberculosis. Briefly: In vivo antimycobacterial activity against Mycobacterium tuberculosis Erdman infected mouse chronic tuberculosis infection model assessed as reduction log10 CFU at 10 to 100 mg/kg for 4 weeks at 5 days/week administered after 31 days post infection relative to control. The series is classed as functional. The following applies: dose 10-100 mg/kg.

In brackets after ≈: the same amount, converted by molar mass. Where only a bound is given, the exact number is not on record here.

Cytochrome P450 3A4, sequence (P08684 whole entry): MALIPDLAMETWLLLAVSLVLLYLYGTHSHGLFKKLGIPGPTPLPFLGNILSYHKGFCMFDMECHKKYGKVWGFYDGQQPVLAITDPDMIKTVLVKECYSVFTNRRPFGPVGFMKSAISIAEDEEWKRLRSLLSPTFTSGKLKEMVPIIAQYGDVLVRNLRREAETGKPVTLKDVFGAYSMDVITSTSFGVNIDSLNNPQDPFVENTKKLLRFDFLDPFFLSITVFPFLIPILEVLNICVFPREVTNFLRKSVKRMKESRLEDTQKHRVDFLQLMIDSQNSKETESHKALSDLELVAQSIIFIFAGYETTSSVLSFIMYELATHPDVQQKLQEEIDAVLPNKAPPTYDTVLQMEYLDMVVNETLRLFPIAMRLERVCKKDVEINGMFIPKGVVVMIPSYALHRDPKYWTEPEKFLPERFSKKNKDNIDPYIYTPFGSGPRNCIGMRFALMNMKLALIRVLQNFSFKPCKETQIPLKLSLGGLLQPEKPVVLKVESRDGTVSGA
Cytochrome P450 2D6, sequence (P10635 whole entry): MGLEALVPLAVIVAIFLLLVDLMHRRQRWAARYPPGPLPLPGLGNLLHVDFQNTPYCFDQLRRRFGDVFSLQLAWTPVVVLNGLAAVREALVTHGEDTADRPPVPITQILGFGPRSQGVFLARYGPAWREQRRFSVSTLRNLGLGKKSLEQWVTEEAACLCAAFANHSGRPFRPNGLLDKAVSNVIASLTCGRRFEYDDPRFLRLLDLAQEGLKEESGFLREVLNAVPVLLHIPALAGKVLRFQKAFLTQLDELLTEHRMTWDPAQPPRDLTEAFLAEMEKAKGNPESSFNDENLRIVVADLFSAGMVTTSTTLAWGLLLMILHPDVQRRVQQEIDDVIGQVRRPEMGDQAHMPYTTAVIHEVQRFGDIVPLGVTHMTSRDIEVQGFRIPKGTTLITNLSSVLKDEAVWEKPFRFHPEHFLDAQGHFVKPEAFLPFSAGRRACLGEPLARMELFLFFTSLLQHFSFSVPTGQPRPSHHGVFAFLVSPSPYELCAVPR

Take `Cc1cc(F)ccc1-c1nc2c(s1)CN(C[C@@]1(C)Cn3cc([N+](=O)[O-])nc3O1)C2`: the MIC in [1] was less than 0.013 µg/mL. The CC50 in [2] is greater than 32 µg/mL. The Vd in series [3] came to 3.38 L/kg. This compound also gave a half-life in series [4] of 2.06 h. This compound also had a peak concentration (Cmax) in [5] of 201 ng/mL. The compound also showed an AUClast in series [6] of 1441 ng·h/mL. In addition, the F in series [7] amounted to 20.5%.

For `C[C@]1(CN2Cc3nc(-c4ccc(F)cc4F)sc3C2)Cn2cc([N+](=O)[O-])nc2O1`, the MIC in [1] was less than 0.013 µg/mL. Further, in series [2], the CC50 was greater than 32 µg/mL. This compound also showed a Vd in series [3] of 2.66 L/kg. For the same compound, the half-life in series [4] was 3.08 h. In series [5], the peak level (Cmax) was 182 ng/mL. In addition, the AUClast in series [6] is 1789 ng·h/mL. For the same compound, in series [7], the F is listed as 9.6%.

Regarding `C[C@]1(CN2CCc3nc(-c4ccc(F)cc4)ccc3C2)Cn2cc([N+](=O)[O-])nc2O1`, the half-life in series [8] worked out at 0.417 h; in series [9] it was 0.1 h; in series [10], 0.367 h. The MIC in series [1] is less than 0.031 µg/mL; in series [11], 4.83 µg/mL (≈ 11.8 µM). Besides, in series [2], the CC50 is greater than 32 µg/mL.

In the case of `NC[C@H]1O[C@H](O[C@H]2[C@H](O)[C@@H](O[C@H]3O[C@H](CO)[C@@H](O)[C@H](N)[C@H]3O)[C@H](N)C[C@@H]2N)[C@H](O)[C@@H](O)[C@@H]1O` [KANAMYCIN], in [12], the MIC50 is 1.22 µg/mL (≈ 2.52 µM) and the MIC90 came to 1.91 µg/mL (≈ 3.94 µM).

Regarding `NNC(=O)c1ccncc1` [ISONIAZID], in series [12], the MIC50 worked out at 0.024 µg/mL (≈ 0.175 µM) and the MIC90 came to 0.034 µg/mL (≈ 0.248 µM).

As to `C[C@]1(COc2ccc(N3CCC(Oc4ccc(OC(F)(F)F)cc4)CC3)cc2)Cn2cc([N+](=O)[O-])nc2O1`, the half-life in [8] was 1.4 h; in [9], greater than 2.42 h; in series [10] it was greater than 2.42 h. For the same compound, the figures for the MIC in [1], in [11] and in series [19] were 0.006 µg/mL (≈ 0.0112 µM), 0.61 µg/mL (≈ 1.14 µM) and 0.015 µg/mL (≈ 0.0281 µM), respectively. For the same compound, the CC50 in [2] is greater than 32 µg/mL. In addition, the Papp A→B in [13] was found to be 0.09 ×10⁻⁶ cm/s. Also, the fraction unbound in [14] is 0.005; in [15], 0.004; in series [16] it was 0.005; in [17] it was 0.005. Moreover, the IC50 on Cytochrome P450 1A2, on Cytochrome P450 2B6, at Cytochrome P450 2C8, on Cytochrome P450 2C9, on Cytochrome P450 2C19 and against Cytochrome P450 2D6 was greater than 100 µM in each case. Moreover, the IC50 was greater than 100 µM against Cytochrome P450 3A4 and greater than 30 µM in series [18]. Besides, in [12], the MIC50 stood at 0.002 µg/mL (≈ 0.00374 µM). Moreover, in series [12], the MIC90 was 0.004 µg/mL (≈ 0.00748 µM). Further, the Activity result is “Dde” in series [20] and 1 log10CFU in [21].
